Earlier results as cited in USRE45822E1, “Oral dosage form comprising a therapeutic agent and an adverse-effect agent” (Purdue Pharma L.P., priority 2001, dated 2015).

Details: administered orally; retain much of their efficacy

| Structure (SMILES) | duration of action [h] |
| --- | --- |
| C[C@H]1[C@H]2Cc3ccc(O)cc3[C@]1(C)CCN2CC1CC1 [cyclazocine] | ~24 |
| O=C1CC[C@@]2(O)[C@H]3Cc4ccc(O)c5c4[C@@]2(CCN3CC2CC2)[C@H]1O5 [naltrexone] | ~24 |
